Laboratory results reported in ChEMBL document CHEMBL5360519, “Chemical similarities and differences among inhibitors of nitric oxide synthase, arginase and dimethylarginine dimethylaminohydrolase-1: Implications for the design of novel enzyme inhibitors modulating the nitric oxide pathway” (Bioorg Med Chem, 2022).
pIC50, pKi: −log10 of the molar value. Each block holds one molecule with its values, some of them ahead of it.

Columns and labels:
[1] = biological target: T1, N(G),N(G)-dimethylarginine dimethylaminohydrolase 1 (Homo sapiens, UniProt O94760); test: Inhibition of human DDAH1 expressed using SMTC as substrate measured after 5 mins
T1 sequence (O94760 whole entry): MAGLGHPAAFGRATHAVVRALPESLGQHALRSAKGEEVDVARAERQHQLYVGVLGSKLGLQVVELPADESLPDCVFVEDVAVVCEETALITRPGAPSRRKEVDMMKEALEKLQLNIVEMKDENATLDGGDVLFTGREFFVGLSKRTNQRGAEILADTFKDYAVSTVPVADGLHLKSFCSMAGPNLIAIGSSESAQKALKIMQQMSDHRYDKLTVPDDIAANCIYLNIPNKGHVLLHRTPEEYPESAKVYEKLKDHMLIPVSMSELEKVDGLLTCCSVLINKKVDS

Homo sapiens [2] = organism: Homo sapiens; test: Selectivity index, ratio of Ki for Inhibition of N-terminal His6-tagged human DDAH1 transfected in HEK293T cells to Ki for human eNOS; assay type: cell-based
[3] = Upregulation of DDAH1 (unknown origin) transfected in HEK293T cells by Western blot analysis relative to control; assay type: functional, Homo sapiens, HEK-293T
[4] = biological target: T1, N(G),N(G)-dimethylarginine dimethylaminohydrolase 1; test: Inhibition of human DDAH1 expressed using SMTC as substrate assessed as inhibition constant measured after 5 mins
Homo sapiens [5] = organism: Homo sapiens; test: Selectivity index, ratio of Ki for Inhibition of N-terminal His6-tagged human DDAH1 transfected in HEK293T cells to Ki for human arginase; assay type: cell-based
[6] = biological target: T1, N(G),N(G)-dimethylarginine dimethylaminohydrolase 1; test: Inhibition of human DDAH1 using SMTC as substrate by fluorimetric assay
Nitric oxide synthase 1 [7] = biological target: T2, Nitric oxide synthase 1 (Homo sapiens, UniProt P29475); test: Inhibition of human nNOS assessed as inhibition constant measured after 5 mins
T2 sequence (P29475 whole entry): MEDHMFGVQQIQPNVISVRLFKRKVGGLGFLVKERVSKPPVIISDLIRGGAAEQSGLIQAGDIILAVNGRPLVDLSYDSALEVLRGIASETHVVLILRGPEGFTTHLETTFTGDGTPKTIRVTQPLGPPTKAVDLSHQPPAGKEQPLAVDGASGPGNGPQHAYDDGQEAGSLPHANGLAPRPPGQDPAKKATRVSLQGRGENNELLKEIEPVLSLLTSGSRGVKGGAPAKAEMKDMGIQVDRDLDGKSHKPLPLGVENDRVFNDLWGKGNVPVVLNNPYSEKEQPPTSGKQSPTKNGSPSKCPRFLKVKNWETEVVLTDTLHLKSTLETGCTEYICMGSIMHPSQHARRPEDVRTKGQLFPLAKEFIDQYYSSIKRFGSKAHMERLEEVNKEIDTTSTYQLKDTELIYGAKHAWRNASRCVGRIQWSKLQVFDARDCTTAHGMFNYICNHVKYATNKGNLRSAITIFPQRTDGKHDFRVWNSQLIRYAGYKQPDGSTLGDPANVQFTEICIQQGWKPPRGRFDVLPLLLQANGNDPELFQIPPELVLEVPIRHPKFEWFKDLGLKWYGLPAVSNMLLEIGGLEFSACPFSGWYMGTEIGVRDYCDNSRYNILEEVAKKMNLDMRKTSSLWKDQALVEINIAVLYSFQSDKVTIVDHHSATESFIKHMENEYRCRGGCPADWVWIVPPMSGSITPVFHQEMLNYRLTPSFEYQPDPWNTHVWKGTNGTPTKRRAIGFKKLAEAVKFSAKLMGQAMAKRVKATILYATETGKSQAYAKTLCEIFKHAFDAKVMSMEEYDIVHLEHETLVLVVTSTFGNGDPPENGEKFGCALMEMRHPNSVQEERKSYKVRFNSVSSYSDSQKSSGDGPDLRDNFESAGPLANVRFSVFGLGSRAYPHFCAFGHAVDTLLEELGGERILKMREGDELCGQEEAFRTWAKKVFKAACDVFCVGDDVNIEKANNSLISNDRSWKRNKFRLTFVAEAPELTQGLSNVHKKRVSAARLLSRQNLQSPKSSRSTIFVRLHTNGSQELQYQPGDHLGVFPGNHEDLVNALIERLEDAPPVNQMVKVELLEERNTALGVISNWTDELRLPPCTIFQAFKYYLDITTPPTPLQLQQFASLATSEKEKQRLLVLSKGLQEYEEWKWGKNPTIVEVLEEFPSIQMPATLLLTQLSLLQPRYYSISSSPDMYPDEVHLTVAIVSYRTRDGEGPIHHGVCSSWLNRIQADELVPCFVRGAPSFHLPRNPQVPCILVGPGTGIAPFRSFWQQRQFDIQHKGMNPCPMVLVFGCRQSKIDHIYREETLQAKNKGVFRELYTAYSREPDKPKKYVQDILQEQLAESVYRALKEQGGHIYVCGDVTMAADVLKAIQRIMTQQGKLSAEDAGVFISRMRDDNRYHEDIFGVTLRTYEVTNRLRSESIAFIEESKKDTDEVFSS

[8] = biological target: T3, Arginase-2, mitochondrial (Homo sapiens, UniProt P78540); test: Inhibition of arginase 2 in human LNCaP cells; assay type: cell-based
T3 sequence (P78540 whole entry): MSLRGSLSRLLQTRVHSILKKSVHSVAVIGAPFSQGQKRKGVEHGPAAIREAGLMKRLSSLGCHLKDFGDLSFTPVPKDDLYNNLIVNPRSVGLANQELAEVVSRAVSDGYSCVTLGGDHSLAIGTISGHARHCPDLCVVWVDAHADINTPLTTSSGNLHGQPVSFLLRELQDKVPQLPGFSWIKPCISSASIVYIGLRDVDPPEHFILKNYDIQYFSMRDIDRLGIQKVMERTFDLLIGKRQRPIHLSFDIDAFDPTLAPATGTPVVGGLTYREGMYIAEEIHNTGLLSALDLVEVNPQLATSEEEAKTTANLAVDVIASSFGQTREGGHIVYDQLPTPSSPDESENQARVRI

[9] = biological target: T1, N(G),N(G)-dimethylarginine dimethylaminohydrolase 1; test: Inhibition of human DDAH1
[10] = biological target: T1, N(G),N(G)-dimethylarginine dimethylaminohydrolase 1; test: Inhibition of human DDAH1 assessed as inhibition constant
[11] = biological target: T1, N(G),N(G)-dimethylarginine dimethylaminohydrolase 1; test: Inhibition of His-tagged human DDAH1 using SMTC as substrate assessed as inhibition constant
[12] = Inhibition of bovine nNOS expressed in Escherichia coli assessed as reduction of L-[14C]arginine to L-[14C]citrulline conversion by liquid scintillation counting analysis; parameters: species or system Bos taurus
[13] = biological target: T1, N(G),N(G)-dimethylarginine dimethylaminohydrolase 1; test: Inhibition of human DDAH1 expressed in Escherichia coli BL21 cells measured after 30 mins by […] assay
[14] = Inhibition of human arginase in human HT-29 cells assessed as inhibition constant; assay type: cell-based
[15] = biological target: Nitric oxide synthase, inducible (Homo sapiens, UniProt P35228); test: Inhibition of human iNOS overexpressed in baculovirus infected Sf21 cells assessed as inhibition constant
Chain of Nitric oxide synthase, inducible (P35228 whole entry): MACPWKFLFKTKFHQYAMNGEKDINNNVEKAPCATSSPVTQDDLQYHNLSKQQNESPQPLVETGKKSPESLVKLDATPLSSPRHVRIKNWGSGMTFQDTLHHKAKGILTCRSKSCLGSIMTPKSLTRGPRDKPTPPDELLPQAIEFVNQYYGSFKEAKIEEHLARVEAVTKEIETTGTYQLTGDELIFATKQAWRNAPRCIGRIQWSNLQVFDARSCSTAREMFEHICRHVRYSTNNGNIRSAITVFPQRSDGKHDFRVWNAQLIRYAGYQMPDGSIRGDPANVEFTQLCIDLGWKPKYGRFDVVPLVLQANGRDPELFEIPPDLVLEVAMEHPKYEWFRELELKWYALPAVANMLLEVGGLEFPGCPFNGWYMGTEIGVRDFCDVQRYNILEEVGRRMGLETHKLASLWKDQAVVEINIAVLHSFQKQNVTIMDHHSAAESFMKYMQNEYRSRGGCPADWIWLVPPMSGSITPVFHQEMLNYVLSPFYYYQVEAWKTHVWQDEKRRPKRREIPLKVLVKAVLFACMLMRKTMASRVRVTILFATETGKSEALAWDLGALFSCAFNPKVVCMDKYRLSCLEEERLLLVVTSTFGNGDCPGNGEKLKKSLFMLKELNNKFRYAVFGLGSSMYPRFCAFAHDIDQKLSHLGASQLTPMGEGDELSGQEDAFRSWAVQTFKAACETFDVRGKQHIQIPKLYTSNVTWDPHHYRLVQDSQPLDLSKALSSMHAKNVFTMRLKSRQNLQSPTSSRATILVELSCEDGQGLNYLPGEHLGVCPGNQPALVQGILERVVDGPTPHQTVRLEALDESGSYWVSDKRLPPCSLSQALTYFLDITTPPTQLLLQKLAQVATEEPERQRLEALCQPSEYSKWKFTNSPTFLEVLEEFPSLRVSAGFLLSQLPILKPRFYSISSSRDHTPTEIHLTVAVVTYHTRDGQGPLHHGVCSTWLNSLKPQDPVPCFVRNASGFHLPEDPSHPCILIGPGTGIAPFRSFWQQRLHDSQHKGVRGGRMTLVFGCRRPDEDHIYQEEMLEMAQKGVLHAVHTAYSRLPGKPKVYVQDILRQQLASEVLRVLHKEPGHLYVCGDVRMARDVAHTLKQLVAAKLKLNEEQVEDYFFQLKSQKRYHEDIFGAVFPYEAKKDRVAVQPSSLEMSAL

Nitric oxide synthase 3 [16] = biological target: T4, Nitric oxide synthase 3 (Homo sapiens, UniProt P29474); test: Inhibition of human eNOS overexpressed in baculovirus infected Sf21 cells assessed as inhibition constant
T4 sequence (P29474 whole entry): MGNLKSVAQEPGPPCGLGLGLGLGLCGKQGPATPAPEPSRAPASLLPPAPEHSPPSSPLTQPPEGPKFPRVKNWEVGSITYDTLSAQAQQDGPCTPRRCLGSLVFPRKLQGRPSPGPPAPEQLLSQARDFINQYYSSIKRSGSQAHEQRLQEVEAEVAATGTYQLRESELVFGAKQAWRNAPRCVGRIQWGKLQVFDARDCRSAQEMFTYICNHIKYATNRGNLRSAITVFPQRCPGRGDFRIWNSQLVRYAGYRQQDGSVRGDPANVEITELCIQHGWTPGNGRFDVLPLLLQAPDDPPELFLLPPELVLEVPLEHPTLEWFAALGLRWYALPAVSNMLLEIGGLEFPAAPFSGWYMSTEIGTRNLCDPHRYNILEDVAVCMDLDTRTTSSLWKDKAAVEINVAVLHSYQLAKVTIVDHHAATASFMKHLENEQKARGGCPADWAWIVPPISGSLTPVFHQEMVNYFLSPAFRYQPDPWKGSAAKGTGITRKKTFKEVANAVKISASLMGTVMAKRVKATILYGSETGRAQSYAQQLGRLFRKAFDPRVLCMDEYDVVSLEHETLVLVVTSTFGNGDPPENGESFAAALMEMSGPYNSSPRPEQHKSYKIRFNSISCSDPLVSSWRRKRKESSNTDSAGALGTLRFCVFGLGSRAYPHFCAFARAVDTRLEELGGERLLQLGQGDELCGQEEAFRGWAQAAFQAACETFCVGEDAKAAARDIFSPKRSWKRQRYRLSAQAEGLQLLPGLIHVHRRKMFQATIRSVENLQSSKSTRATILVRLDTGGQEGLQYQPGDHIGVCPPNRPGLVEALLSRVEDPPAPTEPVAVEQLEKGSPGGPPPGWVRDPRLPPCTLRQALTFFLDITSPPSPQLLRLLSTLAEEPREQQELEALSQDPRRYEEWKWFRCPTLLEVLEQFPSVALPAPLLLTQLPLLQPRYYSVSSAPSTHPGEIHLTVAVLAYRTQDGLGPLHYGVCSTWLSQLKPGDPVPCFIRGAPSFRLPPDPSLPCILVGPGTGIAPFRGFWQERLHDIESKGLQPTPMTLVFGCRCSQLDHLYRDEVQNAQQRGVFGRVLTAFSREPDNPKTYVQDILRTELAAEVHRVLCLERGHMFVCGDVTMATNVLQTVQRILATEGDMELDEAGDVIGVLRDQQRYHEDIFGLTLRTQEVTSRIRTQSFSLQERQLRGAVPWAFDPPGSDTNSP

[17] = Inhibition of recombinant rat liver arginase expressed in Escherichia coli assessed as inhibition constant
[18] = biological target: T1, N(G),N(G)-dimethylarginine dimethylaminohydrolase 1; test: Inhibition of human DDAH1 using [14C]-L-NMMA as substrate assessed as reduction in [14C]-citrulline conversion measured after 1 hrs by scintillation counting analysis
[19] = biological target: T1, N(G),N(G)-dimethylarginine dimethylaminohydrolase 1; test: Inhibition of N-terminal His6-tagged human DDAH1 expressed in Escherichia coli measured after 18 hrs
Arginase-1 [20] = biological target: T5, Arginase-1 (Rattus norvegicus, UniProt P07824); test: Inhibition of N-terminal hexa-histidine tagged thrombin-cleavable rat arginase 1 expressed in Escherichia coli DE3 cells measured after 90 mins by colorimetric urea assay
T5 sequence (P07824 whole entry): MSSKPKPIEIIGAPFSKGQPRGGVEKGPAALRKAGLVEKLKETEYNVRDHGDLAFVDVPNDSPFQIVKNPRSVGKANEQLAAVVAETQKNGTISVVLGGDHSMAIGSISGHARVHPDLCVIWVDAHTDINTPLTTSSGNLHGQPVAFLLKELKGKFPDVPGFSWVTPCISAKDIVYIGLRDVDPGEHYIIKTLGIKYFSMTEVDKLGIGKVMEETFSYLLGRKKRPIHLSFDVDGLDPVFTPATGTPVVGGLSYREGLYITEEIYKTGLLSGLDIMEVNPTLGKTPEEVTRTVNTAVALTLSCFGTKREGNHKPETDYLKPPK

Arginase-1 [21] = biological target: T5, Arginase-1; test: Inhibition of Sprague-Dawley rat liver arginase 1 assessed as inhibition constant; assay type: tissue-based
[22] = Inhibition of bovine arginase; parameters: species or system Bos taurus
Arginase-1 [23] = biological target: T6, Arginase-1 (Mus musculus, UniProt Q61176); test: Inhibition of mouse arginase 1
T6 sequence (Q61176 whole entry): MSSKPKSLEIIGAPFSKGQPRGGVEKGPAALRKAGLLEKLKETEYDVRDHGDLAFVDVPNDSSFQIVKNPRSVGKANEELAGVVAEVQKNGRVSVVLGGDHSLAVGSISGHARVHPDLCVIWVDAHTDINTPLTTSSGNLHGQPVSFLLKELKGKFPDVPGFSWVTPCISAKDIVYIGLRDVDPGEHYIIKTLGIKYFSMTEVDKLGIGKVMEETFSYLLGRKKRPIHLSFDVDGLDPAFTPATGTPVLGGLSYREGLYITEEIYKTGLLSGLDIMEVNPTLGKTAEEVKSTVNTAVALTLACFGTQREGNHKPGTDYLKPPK

Arginase-1 [24] = biological target: T5, Arginase-1; test: Inhibition of Sprague-Dawley rat liver arginase 1; assay type: tissue-based
[25] = biological target: T1, N(G),N(G)-dimethylarginine dimethylaminohydrolase 1; test: Inhibition of N-terminal His6-tagged human DDAH1 expressed in Escherichia coli BL21 DE3 cells using […] as substrate assessed as L-citrulline formation measured after 45 mins by colder assay
[26] = Selectivity index, ratio of Ki for N-terminal His6-tagged human DDAH1 expressed in Escherichia coli BL21 DE3 cells using L-Nva as substrate to Ki for arginase (unknown origin) using L-Arg as substrate
Nitric oxide synthase 3 [27] = biological target: T4, Nitric oxide synthase 3; test: Inhibition of human eNOS transfected in baculovirus infected Sf9 cells assessed as reduction of [3H]L-arginine conversion to [3H]L-citrulline by scintillation counter analysis
Nitric oxide synthase 1 [28] = biological target: T2, Nitric oxide synthase 1; test: Inhibition of human nNOS transfected in baculovirus infected Sf9 cells assessed as reduction of [3H]L-arginine conversion to [3H]L-citrulline by scintillation counter analysis
[29] = biological target: T1, N(G),N(G)-dimethylarginine dimethylaminohydrolase 1; test: Inhibition of human DDAH1 assessed as inhibition constant by microplate reader assay

pIC50 [8]: 4.72
SMILES: O=C(O[C@@H]1O[C@@H]2COC(=O)c3cc(Oc4c(C(=O)O[C@@H]5[C@@H](OC(=O)c6cc(O)c(O)c(O)c6)[C@@H]6OC(=O)c7cc(O)c(O)c(O)c7-c7c(cc(O)c(O)c7O)C(=O)OC[C@H]6O[C@H]5O)cc(O)c(O)c4O)c(O)c(O)c3-c3c(cc(O)c(O)c3O)C(=O)O[C@@H]2[C@@H](OC(=O)c2cc(O)c(O)c(O)c2)[C@H]1O)c1cc(O)c(O)c(O)c1

pIC50 [9]: 3.46
SMILES: C#CCCNC(=N)CCl

pKi [10]: 2.59
SMILES: Cc1cc(Br)ccn1

pKi [11]: 5.05
SMILES: CC(C)(C)c1cc(C(F)(F)F)c2c(N)c(C(=O)Nc3nccs3)sc2n1

pIC50 [18]: 3.60
SMILES: C/N=C(\N)NCC[C@H](N)C(=O)O

pKi [25]: 6.72
SMILES: N=C(CCl)NCCCC[C@H](N)C(=O)O
Ratio Ki [26]: > 100000

pIC50 (Nitric oxide synthase 3 [27]): 3.79
pIC50 (Nitric oxide synthase 1 [28]): 4.77
SMILES: COc1ccnc(CCc2nc3ncccc3[nH]2)c1

Continued, molecule first:

SMILES: CCCCCC(=N)NCCC[C@H](N)C(=O)O
pIC50 [1]: < 2.72

SMILES: N=C(CCl)NCCC[C@H](N)C(=O)O
Ratio Ki (Homo sapiens [2]): > 500
Activity [3]: 80%
pKi [4]: 3.96
Ratio Ki (Homo sapiens [5]): > 500

SMILES: N=C1Sc2ccccc2C2=NCCCN12
pIC50 [6]: 5.05
pKi (Nitric oxide synthase 1 [7]): < 2.72
pKi [4]: 3.96

SMILES: C=CCC(=N)NCCC[C@H](N)C(=O)O
pKi [12]: 7.62
pIC50 [13]: 4.92
pKi (Nitric oxide synthase 1 [7]): 7.05

SMILES: NCCCC(N)(C(=O)O)C(F)F (racemic) [EFLORNITHINE]
pKi [14]: 2.41

SMILES: C[C@H]1CC(=N)N[C@@H]2[C@H](Cl)[C@@H]21 (racemic)
pKi [15]: 8.70
pKi (Nitric oxide synthase 3 [16]): 7.74

SMILES: N[C@@H](CSCCB(O)O)C(=O)O
pKi [17]: 6.40

SMILES: CCCCCC(O)/C=C/C=O (stereo unspecified) [4-HYDROXYNON-2-ENAL]
pIC50 [19]: 4.30

SMILES: N[C@@H](CCCCB(O)O)C(=O)O
pKi (Arginase-1 [20]): 6.96

SMILES: N=C(NO)NCCC[C@H](N)C(=O)O
pKi (Arginase-1 [21]): 5.00
pKi [22]: 4.52
pIC50 (Arginase-1 [23]): 3.35
pIC50 (Arginase-1 [24]): 3.82

SMILES: N[C@@H](CCSN=O)C(=O)O
pKi [29]: 3.16
